Read-outs that look alike come from different tables or passages of the source.
Key:
[1] = Ocular tissue concentration study at twelve weeks following a single intravitreal dose in pigmented rabbits; format: in vivo; conditions: both sexes, Dutch-belted, rabbit, other: intravitreal, single bilateral intravitreal dose of suspension, Day 86
Description: An aqueous suspension pharmaceutical composition of milled N—[(R)-1-[(S)-1-(4-aminomethyl-benzylcarbamoyl)-2-phenyl-ethylcarbamoyl]-2-(4-ethoxy-phenyl)-ethyl]-benzamide hydrochloride was prepared according to Example B1. The resulting nominal 50 mg/mL suspension was diluted with the milling vehicle (prepared according to Example B1) into dosing formulations for intravitreal injection. Five experimentally naïve male and female Dutch-belted rabbits, approximately 5 months old and weighing 1.6 to 2.2 kilograms at the outset of the study were assigned to treatment groups as shown in Table iv. [table] Animals were administered bilateral intravitreal doses of the suspension formulations once on Day 1. On Day 86, the vitreous humors and retina (with choroid) tissues were analysed for active ingredient concentration.

[2] = tested on: diabetic rats; conditions: cited from earlier work

Structure (SMILES)	concentration at 86 day ([1]; retina (with choroid), 15 μg/eye, low-dose group (15 μg/eye), read-out: average retina (with choroid) tissue concentration) [ng/g]	concentration at 86 day ([1]; retina (with choroid), 150 μg/eye, high-dose group (150 μg/eye), read-out: average retina (with choroid) tissue concentration) [ng/g]	concentration at 86 day ([1]; vitreous humor, 15 μg/eye, low-dose group (15 μg/eye), read-out: vitreous humor concentrations (range)) [µg/mL]	concentration at 86 day ([1]; vitreous humor, 150 μg/eye, high-dose group (150 μg/eye), read-out: average vitreous humor concentration) [µg/mL]	concentration at 86 day ([1]; vitreous humor, 150 μg/eye, high-dose group (150 μg/eye), read-out: vitreous humor concentrations (range)) [µg/mL]	retinal blood flow abnormalities [2]	retinal vascular permeability [2]
CCOc1ccc(C[C@@H](NC(=O)c2ccccc2)C(=O)N[C@@H](Cc2ccccc2)C(=O)NCc2ccc(CN)cc2)cc1 [active ingredient, N—[(R)-1-[(S)-1-(4-aminomethyl-benzylcarbamoyl)-2-phenyl-ethylcarbamoyl]-2-(4-ethoxy-phenyl)-ethyl]-benzamide]	1620	44500	0.000216 to 0.935	27.8	2.5 to 56.5		
N=C(N)c1ccc(CNC(=O)c2cnn(Cc3ccccc3)c2)cc1 [ASP-440]						ameliorated	ameliorated
